# Results from ChEMBL document CHEMBL3046358, “Multiple Pro-197 substitutions in the acetolactate synthase of rigid ryegrass (Lolium rigidum) and their impact on chlorsulfuron activity and plant growth” (Crop Prot, 2012).
# Assays:
# Assay type in all cases: functional
# [1] = test system: Lolium rigidum; assay: Herbicidal activity against Lolium rigidum accession A12 assessed as emergence rate applied at recommended rate incorporated into the soil prior weed seedlings relative to untreated control
# [2] = test system: Lolium rigidum; assay: Herbicidal activity against Lolium rigidum accession A09 assessed as fresh weight reduction applied at recommended rate incorporated into the soil prior weed seedlings relative to untreated control; parameters: scale not given: the % may be the effect or the level left
# [3] = test system: Lolium rigidum; assay: Herbicidal activity against Lolium rigidum accession A02 assessed as fresh weight reduction applied at recommended rate incorporated into the soil prior weed seedlings relative to untreated control; parameters: scale not given: the % may be the effect or the level left
# [4] = test system: Lolium rigidum; assay: Herbicidal activity against Lolium rigidum accession A10 assessed as emergence rate applied at recommended rate incorporated into the soil prior weed seedlings relative to untreated control
# [5] = test system: Lolium rigidum; assay: Herbicidal activity against Lolium rigidum accession A06 assessed as fresh weight reduction applied at recommended rate incorporated into the soil prior weed seedlings relative to untreated control; parameters: scale not given: the % may be the effect or the level left
# [6] = test system: Lolium rigidum; assay: Herbicidal activity against Lolium rigidum accession A05 assessed as fresh weight reduction applied at recommended rate incorporated into the soil prior weed seedlings relative to untreated control; parameters: scale not given: the % may be the effect or the level left
# [7] = test system: Lolium rigidum; assay: Herbicidal activity against Lolium rigidum accession A01 assessed as emergence rate applied at recommended rate incorporated into the soil prior weed seedlings relative to untreated control
# [8] = test system: Lolium rigidum; assay: Herbicidal activity against Lolium rigidum accession A13 assessed as fresh weight reduction applied at recommended rate incorporated into the soil prior weed seedlings relative to untreated control; parameters: scale not given: the % may be the effect or the level left
# [9] = test system: Lolium rigidum; assay: Herbicidal activity against Lolium rigidum accession A13 assessed as emergence rate applied at recommended rate incorporated into the soil prior weed seedlings relative to untreated control
# [10] = test system: Lolium rigidum; assay: Herbicidal activity against Lolium rigidum accession A08 assessed as fresh weight reduction applied at recommended rate incorporated into the soil prior weed seedlings relative to untreated control; parameters: scale not given: the % may be the effect or the level left
# [11] = test system: Lolium rigidum; assay: Herbicidal activity against Lolium rigidum accession A09 assessed as emergence rate applied at recommended rate incorporated into the soil prior weed seedlings relative to untreated control
# [12] = test system: Lolium rigidum; assay: Herbicidal activity against Lolium rigidum accession A14 assessed as fresh weight reduction applied at recommended rate incorporated into the soil prior weed seedlings relative to untreated control; parameters: scale not given: the % may be the effect or the level left
# [13] = test system: Lolium rigidum; assay: Herbicidal activity against Lolium rigidum accession A04 assessed as fresh weight reduction applied at recommended rate incorporated into the soil prior weed seedlings relative to untreated control; parameters: scale not given: the % may be the effect or the level left
# [14] = test system: Lolium rigidum; assay: Herbicidal activity against Lolium rigidum accession A08 assessed as emergence rate applied at recommended rate incorporated into the soil prior weed seedlings relative to untreated control
# [15] = test system: Lolium rigidum; assay: Herbicidal activity against Lolium rigidum accession A04 assessed as emergence rate applied at recommended rate incorporated into the soil prior weed seedlings relative to untreated control
# [16] = test system: Lolium rigidum; assay: Herbicidal activity against Lolium rigidum accession A10 assessed as fresh weight reduction applied at recommended rate incorporated into the soil prior weed seedlings relative to untreated control; parameters: scale not given: the % may be the effect or the level left
# [17] = test system: Lolium rigidum; assay: Herbicidal activity against Lolium rigidum accession A15 assessed as fresh weight reduction applied at recommended rate incorporated into the soil prior weed seedlings relative to untreated control; parameters: scale not given: the % may be the effect or the level left
# [18] = test system: Lolium rigidum; assay: Herbicidal activity against Lolium rigidum accession A05 assessed as emergence rate applied at recommended rate incorporated into the soil prior weed seedlings relative to untreated control
# [19] = test system: Lolium rigidum; assay: Herbicidal activity against Lolium rigidum accession A02 assessed as emergence rate applied at recommended rate incorporated into the soil prior weed seedlings relative to untreated control
# [20] = test system: Lolium rigidum; assay: Herbicidal activity against Lolium rigidum accession A12 assessed as fresh weight reduction applied at recommended rate incorporated into the soil prior weed seedlings relative to untreated control; parameters: scale not given: the % may be the effect or the level left
# [21] = test system: Lolium rigidum; assay: Herbicidal activity against Lolium rigidum accession A07 assessed as emergence rate applied at recommended rate incorporated into the soil prior weed seedlings relative to untreated control
# [22] = test system: Lolium rigidum; assay: Herbicidal activity against Lolium rigidum accession A06 assessed as emergence rate applied at recommended rate incorporated into the soil prior weed seedlings relative to untreated control
# [23] = test system: Lolium rigidum; assay: Herbicidal activity against Lolium rigidum accession A11 assessed as fresh weight reduction applied at recommended rate incorporated into the soil prior weed seedlings relative to untreated control; parameters: scale not given: the % may be the effect or the level left
# [24] = test system: Lolium rigidum; assay: Herbicidal activity against Lolium rigidum accession A03 assessed as fresh weight reduction applied at recommended rate incorporated into the soil prior weed seedlings relative to untreated control; parameters: scale not given: the % may be the effect or the level left
# [25] = test system: Lolium rigidum; assay: Herbicidal activity against Lolium rigidum accession A03 assessed as emergence rate applied at recommended rate incorporated into the soil prior weed seedlings relative to untreated control
# [26] = test system: Lolium rigidum; assay: Herbicidal activity against Lolium rigidum accession A07 assessed as fresh weight reduction applied at recommended rate incorporated into the soil prior weed seedlings relative to untreated control; parameters: scale not given: the % may be the effect or the level left
# [27] = test system: Lolium rigidum; assay: Herbicidal activity against Lolium rigidum accession A01 assessed as fresh weight reduction applied at recommended rate incorporated into the soil prior weed seedlings relative to untreated control; parameters: scale not given: the % may be the effect or the level left
# [28] = test system: Lolium rigidum; assay: Herbicidal activity against Lolium rigidum accession A11 assessed as emergence rate applied at recommended rate incorporated into the soil prior weed seedlings relative to untreated control
# [29] = test system: Lolium rigidum; assay: Herbicidal activity against Lolium rigidum accession A15 assessed as emergence rate applied at recommended rate incorporated into the soil prior weed seedlings relative to untreated control
# [30] = test system: Lolium rigidum; assay: Herbicidal activity against Lolium rigidum accession A14 assessed as emergence rate applied at recommended rate incorporated into the soil prior weed seedlings relative to untreated control
structure (smiles),measurement,setting,value
CCOP(=S)(OCC)SCSC(C)(C)C [TERBUFOS],Activity,[1],93%
same,Activity,[2],0%
same,Activity,[3],0%
same,Activity,[4],95%
same,Activity,[5],0%
same,Activity,[6],1%
same,Activity,[7],99%
same,Activity,[8],0%
same,Activity,[9],100%
same,Activity,[10],0%
same,Activity,[11],99%
same,Activity,[12],1%
same,Activity,[13],0%
same,Activity,[14],100%
same,Activity,[15],100%
same,Activity,[16],0%
same,Activity,[17],0%
same,Activity,[18],95%
same,Activity,[19],97%
same,Activity,[20],2%
same,Activity,[21],93%
same,Activity,[22],97%
same,Activity,[23],0%
same,Activity,[24],0%
same,Activity,[25],98%
same,Activity,[26],0%
same,Activity,[27],0%
same,Activity,[28],98%
same,Activity,[29],99%
same,Activity,[30],94%
